Source: patent US4147861A, “1N-(α-Hydroxy-ω-aminoalkanoyl)- 6'N-methyl-3',4'-dideoxykanamycin B and the production thereof” (Zaidan Hojin Biseibutsu Kagaku Kenkyu Kai, priority 1977, dated 1979)
≈ marks a conversion by molar mass, not a printed value. Read-outs that look alike come from different tables or passages of the source.

How the values were obtained:
[1] = system: kanamycin-resistant bacteria; details: prior art statement; cited from earlier work
[2] = system: Escherichia coli LA290 R64; assay: Minimum inhibitory concentration, serial dilution method on nutrient agar; type: cell-based; details: LA290R64, 18 h, read-out: Minimum Inhibitory Concentrations
[3] = system: Escherichia coli K-12 ML 1629; assay: as above; type: cell-based; details: K12ML1629; Escherichia coli K-12 ML 1629; 37° C., 18 hours; read-out: Minimum Inhibitory Concentrations
[4] = system: Sarcina lutea PCI 1001; assay: as above; type: cell-based; details: Micrococcus luteus, read-out: Minimum Inhibitory Concentrations
[5] = system: Mycobacterium smegmatis ATCC 607; assay: as above; type: cell-based; details: Mycolicibacterium smegmatis, ATCC607, 37° C., 18 hours, read-out: Minimum Inhibitory Concentrations
[6] = system: Pseudomonas aeruginosa GN315; assay: as above; type: cell-based; details: read-out: Minimum Inhibitory Concentrations
[7] = system: Pseudomonas aeruginosa A3; assay: as above; type: cell-based; details: 37° C., 18 hours, read-out: Minimum Inhibitory Concentrations
Method: (§1) The minimum inhibitory concentrations (mcg./ml.) of 1N-(DL-isoseryl)-6'N-methyl-3',4'-dideoxykanamycin B (abbreviated as DL-IS-MDKB); 1N-(L-isoseryl)-6'N-methyl-3',4'-dideoxykanamycin B (abbreviated as L-IS-MDKB); 1N-(L-4-amino-[…])-6'N-methyl-3',4'-dideoxykanamycin B (abbreviated as AHB-MDKB); and 1N-(L-5-amino-2-hydroxyvaleryl)-6'N-methyl-3',4'-dideoxykanamycin B (abbreviated as AHV-MDBK) against various organisms were determined according to serial dilution method using nutrient agar medium at 37° C., the readings being made after 18 hours incubation. For the comparison purpose, the minimum inhibitory concentrations (mcg./ml.) of 1 N-(L-4-amino-2-hydroxybutyryl)-kanamycin A (abbreviated as AHB-KMA) and 1N-([…])-kanamycin B (abbreviated as AHB-KMB) which are known from U.S. Pat. No. 3,781,268 were also determined by the same manner as stated above.

[8] = system: Klebsiella pneumoniae 22 No. 3038; assay: as above; type: cell-based; details: 37° C., 18 hours, read-out: Minimum Inhibitory Concentrations
Method: as §1

[9] = system: Shigella flexneri 4b JS 11811; assay: as above; type: cell-based; details: 4BJS11811, 37° C., 18 hours, read-out: Minimum Inhibitory Concentrations
Method: as §1

[10] = system: Shigella sonnei JS 11746; assay: as above; type: cell-based; details: JS11746, 37° C., 18 hours, read-out: Minimum Inhibitory Concentrations
Method: as §1

[11] = system: Escherichia coli K-12 ML 1630; assay: as above; type: cell-based; details: K12ML1630, 37° C., 18 hours, read-out: Minimum Inhibitory Concentrations
Method: as §1

[12] = system: Escherichia coli K-12 ML 1410; assay: as above; type: cell-based; details: K12ML1410; Escherichia coli K-12 ML 1410; 37° C., 18 hours; read-out: Minimum Inhibitory Concentrations
[13] = system: Staphylococcus aureus; assay: as above; type: cell-based; details: 37° C., 18 hours, read-out: Minimum Inhibitory Concentrations
[14] = system: Escherichia coli W677; assay: as above; type: cell-based; details: Escherichia coli W677; 37° C., 18 hours; read-out: Minimum Inhibitory Concentrations
[15] = system: Pseudomonas aeruginosa TI-13; assay: as above; type: cell-based; details: read-out: Minimum Inhibitory Concentrations
[16] = system: Pseudomonas aeruginosa 99; assay: as above; type: cell-based; details: 37° C., 18 hours, read-out: Minimum Inhibitory Concentrations
[17] = system: Salmonella typhosa T-63; assay: as above; type: cell-based; details: Salmonella enterica, 18 h, read-out: Minimum Inhibitory Concentrations
[18] = system: Klebsiella pneumoniae PCT 602; assay: as above; type: cell-based; details: PCT602; Klebsiella pneumoniae PCT 602; 37° C., 18 hours; read-out: Minimum Inhibitory Concentrations
[19] = system: Staphylococcus aureus Terajima; assay: as above; type: cell-based; details: 37° C., 18 hours, read-out: Minimum Inhibitory Concentrations
[20] = system: Pseudomonas aeruginosa No. 12; assay: as above; type: cell-based; details: read-out: Minimum Inhibitory Concentrations
[21] = system: Escherichia coli LA290 R55; assay: as above; type: cell-based; details: LA290R55, 18 h, read-out: Minimum Inhibitory Concentrations
[22] = system: Escherichia coli K-12; assay: as above; type: cell-based; details: K12; Escherichia coli K-12; 37° C., 18 hours; read-out: Minimum Inhibitory Concentrations
[23] = system: Bacillus cereus ATCC 10702; assay: as above; type: cell-based; details: read-out: Minimum Inhibitory Concentrations
[24] = system: Escherichia coli NIHJ; assay: as above; type: cell-based; details: Escherichia coli NIHJ; 37° C., 18 hours; read-out: Minimum Inhibitory Concentrations
[25] = system: Escherichia coli JR66/W677; assay: as above; type: cell-based; details: read-out: Minimum Inhibitory Concentrations
[26] = system: Staphylococcus aureus FDA 209P; assay: as above; type: cell-based; details: FDA209P, 37° C., 18 hours, read-out: Minimum Inhibitory Concentrations
[27] = system: Bacillus subtilis NRRL B-558; assay: as above; type: cell-based; details: NRRLB558, 37° C., 18 hours, read-out: Minimum Inhibitory Concentrations
[28] = system: Salmonella enteritidis 1891; assay: as above; type: cell-based; details: Salmonella enterica; Salmonella enteritidis 1891; 37° C., 18 hours; read-out: Minimum Inhibitory Concentrations
[29] = system: Shigella dysenteriae JS 11910; assay: as above; type: cell-based; details: JS11910, 18 h, read-out: Minimum Inhibitory Concentrations
[30] = system: Bacillus anthracis; assay: microbe, parasite or virus in culture; type: cell-based; details: 18 h, read-out: Minimum Inhibitory Concentrations
[31] = system: Bacillus subtilis PCI 219; assay: Minimum inhibitory concentration, serial dilution method on nutrient agar; type: cell-based; details: PCI219, 37° C., 18 hours, read-out: Minimum Inhibitory Concentrations
[32] = system: Proteus vulgaris OX 19; assay: as above; type: cell-based; details: OX19; Proteus vulgaris OX 19; 37° C., 18 hours; read-out: Minimum Inhibitory Concentrations
[33] = system: Escherichia coli LA290 R56; assay: as above; type: cell-based; details: LA290R56, 18 h, read-out: Minimum Inhibitory Concentrations
[34] = system: Escherichia coli K-12 R5; assay: as above; type: cell-based; details: K12R5, 18 h, read-out: Minimum Inhibitory Concentrations
[35] = system: Corynebacterium bovis 1810; assay: as above; type: cell-based; details: read-out: Minimum Inhibitory Concentrations
[36] = system: Escherichia coli K-12 ML 1410 R81; assay: as above; type: cell-based; details: 18 h, read-out: Minimum Inhibitory Concentrations

SMILES | MIC [2] [µg/mL] | MIC [3] [µg/mL] | MIC [5] [µg/mL] | MIC [7] [µg/mL] | MIC [8] [µg/mL] | MIC [9] [µg/mL] | MIC [10] [µg/mL] | MIC [11] [µg/mL] | MIC [12] [µg/mL] | MIC [13] [µg/mL] | MIC [14] [µg/mL] | MIC [16] [µg/mL] | MIC [17] [µg/mL] | MIC [18] [µg/mL] | MIC [19] [µg/mL] | MIC [21] [µg/mL] | MIC [22] [µg/mL] | MIC [24] [µg/mL] | MIC [26] [µg/mL] | MIC [27] [µg/mL] | other results
NCC[C@H](O)C(=O)N[C@@H]1C[C@H](N)[C@@H](O[C@H]2O[C@H](CN)[C@@H](O)[C@H](O)[C@H]2N)[C@H](O)[C@H]1O[C@H]1O[C@H](CO)[C@@H](O)[C@H](N)[C@H]1O [AHB-KMB, 1N-(L-4-amino-2-hydroxybutyryl)kanamycin B] | – | – | – | – | – | – | – | – | – | – | – | – | – | – | – | – | – | – | – | – | activity against kanamycin-resistant bacteria [1]: active against a large number of kanamycin-resistant bacteria
CNC[C@@H]1CC[C@@H](N)[C@@H](O[C@H]2[C@H](O)[C@@H](O[C@H]3O[C@H](CO)[C@@H](O)[C@H](N)[C@H]3O)[C@H](NC(=O)[C@@H](O)CCN)C[C@@H]2N)O1 [AHB-MDKB, 1N-(L-4-amino-2-hydroxybutyryl)-6'N-methyl-3',4'-dideoxykanamycin B] | 0.78 (≈ 1.38 µM) | 1.56 (≈ 2.75 µM) | 0.2 (≈ 0.353 µM) | 3.13 (≈ 5.52 µM) | 3.13 (≈ 5.52 µM) | 3.13 (≈ 5.52 µM) | 6.25 (≈ 11 µM) | 0.78 (≈ 1.38 µM) | 1.56 (≈ 2.75 µM) | < 0.2 | 0.78 (≈ 1.38 µM) | 25 (≈ 44.1 µM) | 3.13 (≈ 5.52 µM) | 0.78 (≈ 1.38 µM) | < 0.2 | 0.78 (≈ 1.38 µM) | 0.78 (≈ 1.38 µM) | 1.56 (≈ 2.75 µM) | 0.78 (≈ 1.38 µM) | < 0.2 | MIC ([4]; PCI1001, 18 h): 3.13 µg/mL (≈ 5.52 µM); MIC ([6]; Pseudomonas aeruginosa, GN315, 18 h): 6.25 µg/mL (≈ 11 µM); MIC ([15]; Pseudomonas aeruginosa, TI13, 18 h): 6.25 µg/mL (≈ 11 µM); MIC ([20]; Pseudomonas aeruginosa, NO.12, 18 h): 3.13 µg/mL (≈ 5.52 µM); MIC ([23]; Bacillus cereus, ATCC10702, 18 h): 3.13 µg/mL (≈ 5.52 µM); MIC ([25]; Escherichia coli, JR66/W677, 18 h): 3.13 µg/mL (≈ 5.52 µM); MIC [28]: 1.56 µg/mL (≈ 2.75 µM); MIC [29]: 3.13 µg/mL (≈ 5.52 µM); MIC [30]: < 0.2 µg/mL; MIC [31]: < 0.2 µg/mL; MIC [32]: 1.56 µg/mL (≈ 2.75 µM); MIC [33]: 0.78 µg/mL (≈ 1.38 µM); MIC [34]: 1.56 µg/mL (≈ 2.75 µM); MIC ([35]; Corynebacterium bovis, 1810, 18 h): 3.13 µg/mL (≈ 5.52 µM)
CNC[C@@H]1CC[C@@H](N)[C@@H](O[C@H]2[C@H](O)[C@@H](O[C@H]3O[C@H](CO)[C@@H](O)[C@H](N)[C@H]3O)[C@H](NC(=O)[C@@H](O)CCCN)C[C@@H]2N)O1 [AHV-MDKB, 1N-(L-5-amino-2-hydroxyvaleryl)-6'N-methyl-3',4'-dideoxykanamycin B] | 0.39 (≈ 0.672 µM) | 0.78 (≈ 1.34 µM) | 0.78 (≈ 1.34 µM) | 3.13 (≈ 5.39 µM) | 3.13 (≈ 5.39 µM) | 3.13 (≈ 5.39 µM) | 3.13 (≈ 5.39 µM) | 1.56 (≈ 2.69 µM) | 1.56 (≈ 2.69 µM) | < 0.2 | 0.78 (≈ 1.34 µM) | 25 (≈ 43.1 µM) | 0.78 (≈ 1.34 µM) | 0.78 (≈ 1.34 µM) | < 0.2 | 0.78 (≈ 1.34 µM) | 0.78 (≈ 1.34 µM) | 0.78 (≈ 1.34 µM) | 0.39 (≈ 0.672 µM) | < 0.2 | MIC ([4]; PCI1001, Sarcina lutea PCI 1001, 37° C., 18 hours): 12.5 µg/mL (≈ 21.5 µM); MIC ([6]; Pseudomonas aeruginosa GN315, 37° C., 18 hours): 12.5 µg/mL (≈ 21.5 µM); MIC ([15]; TI13, Pseudomonas aeruginosa TI-13, 37° C., 18 hours): 6.25 µg/mL (≈ 10.8 µM); MIC ([20]; Pseudomonas aeruginosa No. 12, 37° C., 18 hours): 25 µg/mL (≈ 43.1 µM); MIC ([23]; ATCC10702, Bacillus cereus ATCC 10702, 37° C., 18 hours): 1.56 µg/mL (≈ 2.69 µM); MIC [36]: 1.56 µg/mL (≈ 2.69 µM); MIC ([25]; Escherichia coli JR66/W677, 37° C., 18 hours): 1.56 µg/mL (≈ 2.69 µM); MIC [28]: 0.78 µg/mL (≈ 1.34 µM); MIC [29]: 3.13 µg/mL (≈ 5.39 µM); MIC [30]: < 0.2 µg/mL; MIC [31]: < 0.2 µg/mL; MIC [32]: 0.78 µg/mL (≈ 1.34 µM); MIC [33]: 0.39 µg/mL (≈ 0.672 µM); MIC [34]: 1.56 µg/mL (≈ 2.69 µM); MIC ([35]; Corynebacterium bovis 1810, 37° C., 18 hours): 6.25 µg/mL (≈ 10.8 µM)
